What was measured:
[1] = test system: apple scab pathogen Venturia inaequalis; test: Venturia test (apple)/protective; type: in vivo; conditions: 240 h, protective, application rate 100 g/ha, evaluation 10 days after inoculation, read-out: efficacy
Protocol: Venturia test (apple)/protective […] To produce a suitable preparation of active compound, 1 part by weight of active compound is mixed with the stated amounts of solvent and emulsifier, and the concentrate is diluted with water to the desired concentration. To test for protective activity, young plants are sprayed with the preparation of active compound at the stated application rate. After the spray coating has dried on, the plants are inoculated with an aqueous conidia suspension of the apple scab pathogen Venturia inaequalis and then remain in an incubation cabin at about 20° C. and 100% relative atmospheric humidity for 1 day. The plants are then placed in a greenhouse at about 21° C. and a relative atmospheric humidity of about 90%.

[2] = test system: apple mildew pathogen Podosphaera leucotricha; test: Podosphaera test (apple)/protective; type: in vivo; conditions: 240 h, protective, application rate 100 g/ha, evaluation 10 days after inoculation, read-out: efficacy
Protocol: (§1) Podosphaera test (apple)/protective [table] To produce a suitable preparation of active compound, 1 part by weight of active compound is mixed with the stated amounts of solvent and emulsifier, and the concentrate is diluted with water to the desired concentration. To test for protective activity, young plants are sprayed with the preparation of active compound at the stated application rate. After the spray coating has dried on, the plants are inoculated with an aqueous spore suspension of the apple mildew pathogen Podosphaera leucotricha. The plants are then placed in a greenhouse at about 23° C. and about 70% relative atmospheric humidity.

[3] = test system: army worm (Spodoptera frugiperda); test: Spodoptera frugipereda test/synthetic feed; type: in vivo; conditions: larva (L3) on synthetic feed, concentration of active compound 500 ppm
Protocol: Spodoptera frugipereda test/synthetic feed [table] To produce a suitable preparation of active compound, 1 part by weight of active compound is mixed with the stated amount of solvent and the stated amount of emulsifier, and the concentrate is diluted with emulsifier-containing water to the desired concentration. A stated amount of the preparation of active compound of the desired concentration is pipetted onto a standardized amount of synthetic feed. In 6 replications, in each case one larva (L3) of the army worm (Spodoptera frugiperda) is placed onto the feed. After the desired period of time, the kill in % is determined. 100% means that all animals have been killed; 0% means that none of the animals have been killed.

Sphaerotheca fuliginea = test: Sphaerotheca test (cucumber)/protective; type: in vivo; conditions: Podosphaera fuliginea, 168 h, protective, application rate 100 g/ha, evaluation 7 days after inoculation, read-out: efficacy
Protocol: as §1, with “Sphaerotheca” for “Podosphaera”, “(cucumber)/protective” for “(apple)/protective”, “Sphaerotheca fuliginea.” for “the apple mildew pathogen Podosphaera leucotricha.”

[4] = test system: Erysiphe graminis f.sp. hordei; test: Erysiphe test (barley)/protective; type: in vivo; conditions: Blumeria graminis, 168 h, protective, application rate 500 g/ha, evaluation 7 days after inoculation, read-out: efficacy
Protocol: Erysiphe test (barley)/protective [table] To produce a suitable preparation of active compound, 1 part by weight of active compound is mixed with the stated amounts of solvent and emulsifier, and the concentrate is diluted with water to the desired concentration. To test for protective activity, young plants are sprayed with the preparation of active compound at the stated application rate. After the spray coating has dried on, the plants are dusted with spores of Erysiphe graminis f.sp. hordei. The plants are placed in a greenhouse at a temperature of about 20° C. and a relative atmospheric humidity of about 80% to promote the development of mildew pustules.

Phytophthora infestans = test: whole plant or invertebrate; type: in vivo; conditions: in Solanum lycopersicum, 72 h, read-out: efficacy
Leptosphaeria nodorum = Leptosphaeria nodorum test (wheat)/protective; type: in vivo; conditions: Parastagonospora nodorum, 240 h, protective, application rate 500 g/ha, evaluation 10 days after inoculation, read-out: efficacy
Protocol: Leptosphaeria nodorum test (wheat)/protective [table] To produce a suitable preparation of active compound, 1 part by weight of active compound is mixed with the stated amounts of solvent and emulsifier, and the concentrate is diluted with water to the desired concentration. To test for protective activity, young plants are sprayed with the preparation of active compound at the stated application rate. After the spray coating has dried on, the plants are sprayed with a spore suspension of Leptosphaeria nodorum. The plants remain in an incubation cabin at 20° C. and 100% relative atmospheric humidity for 48 hours. The plants are placed in a greenhouse at a temperature of about 15° C. and a relative atmospheric humidity of 80%.

[5] = logP determination by HPLC (EEC Directive 79/831 Annex V.A8); conditions: pH 2
[6] = test system: green peach aphid (Myzus persicae); test: Myzus test/broad beans; type: in vivo; conditions: broad bean seedlings dipped, active compound concentration 100 ppm, after 6 days
Protocol: Myzus test/broad beans [table] To produce a suitable preparation of active compound, 1 part by weight of active compound is mixed with the stated amount of solvent and the stated amount of emulsifier, and the concentrate is diluted with emulsifier-containing water to the desired concentration. Broad bean seedlings (Vicia faba minor) which are infected by the green peach aphid (Myzus persicae) are dipped into a preparation of active compound of the desired concentration and placed into a plastic dish. After the desired period of time, the kill in percent is determined. 100% means that all animals have been killed; 0% means that none of the animals have been killed.

Row | SMILES | pest or weed control at 100 g/ha [1] | pest or weed control at 100 g/ha [2] | chromatographic logP (physchem; pH 2, log P (pH 2)) | kill rate [3] | pest or weed control at 100 g/ha (Sphaerotheca fuliginea) | pest or weed control at 500 g/ha [4] | pest or weed control at 100 g/ha (Phytophthora infestans) | pest or weed control at 500 g/ha (Leptosphaeria nodorum) | chromatographic logP [5] | chromatographic logP (physchem; logP) | log P (pH 2) | kill [6]
1 | CO/N=C(/C(=O)OC)c1c(F)cccc1Oc1ncnc(Oc2cccc(Cl)c2C)c1F [Example 1, methyl {2-[6-(3-chloro-2-methylphenoxy)-5-fluoropyrimidin-4-yloxy]-6-fluorophenyl}methoxyiminoacetate] | ≥ 97% | ≥ 82% | 4.23 | ≥ 98% | ≥ 98% | ≥ 98% | – | – | – | – | – | –
2 | CNC(=O)/C(=N/OC)c1c(F)cccc1Oc1ncnc(Oc2ccccc2Cl)c1F [Example 2, 2-{2-[6-(2-chlorophenoxy)-5-fluoropyrimidin-4-yloxy]-6-fluorophenyl}-2-methoxyimino-N-methylacetamide] | ≥ 97% | ≥ 82% | 3.1 | – | ≥ 98% | – | ≥ 86% | ≥ 98% | – | – | – | –
3 | Cc1cccc(F)c1C(=O)C#N [Example (XX-1), 2-fluoro-6-methylbenzoyl cyanide] | – | – | – | – | – | – | – | – | 2.55 | – | – | –
4 | CO/N=C(/C(=O)OC)c1c(F)cccc1CO/N=C(\C)c1cccc(C(F)(F)F)c1 [Example 50] | ≥ 97% | ≥ 82% | – | – | ≥ 98% | ≥ 98% | ≥ 86% | – | – | 4.27 | – | –
5 | CNC(=O)/C(=N/OC)c1c(F)cccc1Oc1cc(Oc2cccc(Cl)c2C)ncn1 [Example 57] | ≥ 97% | ≥ 82% | – | – | ≥ 98% | – | ≥ 86% | ≥ 98% | – | 3.24 | – | –
6 | CO/N=C(/C(=O)OC)c1c(F)cccc1CBr [Example (VIII-1), methyl (2-bromomethyl-6-fluorophenyl)methoxyiminoacetate] | – | – | 2.58 | – | – | – | – | – | – | – | 2.87 | –
7 | CNC(=O)/C(=N/OC)c1c(F)cccc1Oc1cc(Oc2ccccc2Cl)ncn1 [Example 47] | ≥ 97% | ≥ 82% | – | – | ≥ 98% | – | ≥ 86% | ≥ 98% | – | 2.79 | – | –
8 | CO/N=C(/C(=O)OC)c1c(F)cccc1COc1ccccc1C [Example 8, methyl (2-fluoro-6-o-tolyloxymethylphenyl)methoxyiminoacetate] | ≥ 97% | ≥ 82% | 3.65 | – | ≥ 98% | ≥ 98% | – | – | – | – | – | –
9 | CNC(=O)/C(=N/OC)c1c(F)cccc1Oc1ncnc(Oc2cccc(Cl)c2C)c1F [Example 45] | ≥ 97% | ≥ 82% | – | – | ≥ 98% | – | ≥ 86% | ≥ 98% | – | 3.6 | – | –
10 | CO/N=C(/C(=O)OC)c1c(F)cccc1Oc1ncnc(Oc2ccccc2Cl)c1F [Example 14] | ≥ 97% | ≥ 82% | – | – | ≥ 98% | ≥ 98% | ≥ 86% | – | – | 3.73 | – | –
11 | CNC(=O)/C(=N\OC)c1c(F)cccc1CO/N=C(\C)c1cccc(C(F)(F)F)c1 [Example 56] | ≥ 97% | ≥ 82% | – | – | ≥ 98% | – | ≥ 86% | – | – | 3.8 | – | 100%
12 | CNC(=O)/C(=N/OC)c1c(F)cccc1Oc1ncnc(Oc2cccc(Cl)c2Cl)c1F [Example 48] | ≥ 97% | ≥ 82% | – | – | ≥ 98% | – | ≥ 86% | ≥ 98% | – | 3.5 | – | –
13 | CNC(=O)/C(=N/OC)c1ccc(F)cc1Oc1ncnc(Oc2ccccc2C(F)(F)F)c1F [Example 31] | ≥ 97% | ≥ 82% | – | – | ≥ 98% | – | ≥ 86% | ≥ 98% | – | 3.26 | – | –
14 | CNC(=O)/C(=N/OC)c1c(F)cccc1Oc1cc(Oc2cccc(Cl)c2Cl)ncn1 [Example 46] | ≥ 97% | ≥ 82% | – | – | ≥ 98% | – | ≥ 86% | ≥ 98% | – | 3.23 | – | –
15 | CNC(=O)/C(=N/OC)c1ccc(F)cc1Oc1ncnc(Oc2ccc(Cl)cc2)c1F [Example 22] | – | – | – | – | – | – | – | ≥ 98% | – | 3.32 | – | –
16 | CO/N=C(/C(=O)OC)c1c(F)cccc1Oc1ncnc(Oc2cccc(Cl)c2Cl)c1F [Example 12] | ≥ 97% | ≥ 82% | – | – | ≥ 98% | ≥ 98% | ≥ 86% | – | – | 4.16 | – | –
17 | CNC(=O)/C(=N/OC)c1c(F)cccc1CO/N=C(\C)c1cccc(C(F)(F)F)c1 [Example 51] | ≥ 97% | ≥ 82% | – | – | ≥ 98% | ≥ 98% | ≥ 86% | – | – | 3.71 | – | –
18 | CNC(=O)/C(=N/OC)c1ccc(F)cc1Oc1ncnc(Oc2ccccc2F)c1F [Example 16] | – | – | – | – | – | – | – | ≥ 98% | – | 3.03 | – | –

— patent US20050124498A1, “Halobenzyl substituted phenylaceto esters and amides and use thereof for prevention of harmful organisms” (priority 2002, published 2005)
